Where two headings read alike, the source gives them in different places.
What was measured:
Type in all cases: biochemical
[1] = molecular target: EPH-A2 (Homo sapiens, UniProt P29317); assay: Kinase profiling EPH-A2; conditions: for remaining activity at 100 µM: read-out: residual kinase activity, EPH-A2
Description: (§1) Any value less that 25 is considered to be highly significant inhibition.

[2] = molecular target: RSK1 (Homo sapiens, UniProt Q15418); assay: Kinase profiling RSK1; conditions: for remaining activity at 100 µM: read-out: residual kinase activity, RSK1
Description: as §1

[3] = test system: CK2; assay: Kinase profiling CK2
Description: as §1

[4] = molecular target: T1, PKD1 (Homo sapiens, UniProt Q15139); assay: Kinase profiling PKD1; conditions: for remaining activity at 100 µM: read-out: residual kinase activity, PKD1
T1 sequence (Q15139 1-912): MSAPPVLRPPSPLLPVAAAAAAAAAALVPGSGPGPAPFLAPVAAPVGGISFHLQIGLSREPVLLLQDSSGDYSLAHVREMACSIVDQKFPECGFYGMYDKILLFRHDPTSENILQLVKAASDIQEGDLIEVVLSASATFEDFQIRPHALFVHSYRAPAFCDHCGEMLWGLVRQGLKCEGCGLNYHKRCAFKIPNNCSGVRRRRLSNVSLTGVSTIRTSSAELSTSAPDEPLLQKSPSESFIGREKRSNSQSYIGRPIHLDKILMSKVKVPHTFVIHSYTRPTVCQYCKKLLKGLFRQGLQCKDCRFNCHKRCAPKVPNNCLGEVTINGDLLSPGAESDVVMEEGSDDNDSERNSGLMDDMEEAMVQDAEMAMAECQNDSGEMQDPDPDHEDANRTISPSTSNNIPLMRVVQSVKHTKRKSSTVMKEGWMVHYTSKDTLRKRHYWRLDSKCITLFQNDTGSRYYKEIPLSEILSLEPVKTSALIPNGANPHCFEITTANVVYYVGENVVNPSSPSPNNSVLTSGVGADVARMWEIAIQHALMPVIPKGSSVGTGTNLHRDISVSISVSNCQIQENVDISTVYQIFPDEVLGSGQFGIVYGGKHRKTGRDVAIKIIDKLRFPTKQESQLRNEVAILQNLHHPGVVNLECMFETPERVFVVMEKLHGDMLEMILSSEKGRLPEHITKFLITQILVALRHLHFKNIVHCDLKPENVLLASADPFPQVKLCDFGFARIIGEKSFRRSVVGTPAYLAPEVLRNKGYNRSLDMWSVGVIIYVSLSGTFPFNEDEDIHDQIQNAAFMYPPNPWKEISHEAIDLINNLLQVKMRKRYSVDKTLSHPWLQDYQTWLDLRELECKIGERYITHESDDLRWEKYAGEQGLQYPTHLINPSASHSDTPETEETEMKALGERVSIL
Description: as §1

[5] = molecular target: T2, LKB1 (Homo sapiens, UniProt Q15831); assay: Kinase profiling LKB1; conditions: for remaining activity at 100 µM: read-out: residual kinase activity, LKB1
T2 sequence (Q15831 1-433): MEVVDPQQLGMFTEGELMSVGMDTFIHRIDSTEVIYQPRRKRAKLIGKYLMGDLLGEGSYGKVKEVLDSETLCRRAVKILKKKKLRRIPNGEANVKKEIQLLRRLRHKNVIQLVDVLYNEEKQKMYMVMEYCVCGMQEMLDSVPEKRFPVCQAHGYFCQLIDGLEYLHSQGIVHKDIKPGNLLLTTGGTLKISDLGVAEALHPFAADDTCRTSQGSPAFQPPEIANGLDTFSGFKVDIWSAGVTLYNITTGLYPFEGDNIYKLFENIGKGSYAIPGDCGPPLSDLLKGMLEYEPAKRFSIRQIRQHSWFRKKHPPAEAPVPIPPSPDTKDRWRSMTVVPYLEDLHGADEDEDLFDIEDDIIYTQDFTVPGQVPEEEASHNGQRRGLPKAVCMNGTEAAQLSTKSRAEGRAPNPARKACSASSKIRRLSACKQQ
T2 sequence (Q7RTN6 1-431 partner): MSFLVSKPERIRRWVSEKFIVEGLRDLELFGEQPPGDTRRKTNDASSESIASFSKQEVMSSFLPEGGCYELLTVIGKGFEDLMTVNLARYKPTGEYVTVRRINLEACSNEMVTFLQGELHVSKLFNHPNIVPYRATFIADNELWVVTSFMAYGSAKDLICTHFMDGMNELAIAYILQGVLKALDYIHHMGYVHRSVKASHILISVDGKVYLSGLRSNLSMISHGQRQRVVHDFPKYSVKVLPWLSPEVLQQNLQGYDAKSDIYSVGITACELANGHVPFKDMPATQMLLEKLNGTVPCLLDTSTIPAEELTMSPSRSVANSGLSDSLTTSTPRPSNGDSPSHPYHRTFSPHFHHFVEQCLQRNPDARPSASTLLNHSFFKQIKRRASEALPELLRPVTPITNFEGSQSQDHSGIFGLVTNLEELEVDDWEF
T2 sequence (Q9Y376 1-341 partner): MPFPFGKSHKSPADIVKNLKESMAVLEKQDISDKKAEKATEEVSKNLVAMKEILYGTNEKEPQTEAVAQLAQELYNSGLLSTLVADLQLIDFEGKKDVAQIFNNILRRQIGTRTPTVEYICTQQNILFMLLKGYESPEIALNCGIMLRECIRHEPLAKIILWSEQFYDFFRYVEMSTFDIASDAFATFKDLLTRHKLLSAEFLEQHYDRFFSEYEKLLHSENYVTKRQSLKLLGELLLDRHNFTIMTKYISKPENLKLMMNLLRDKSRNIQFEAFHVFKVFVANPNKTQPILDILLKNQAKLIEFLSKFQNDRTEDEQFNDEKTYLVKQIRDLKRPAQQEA
Description: as §1

[6] = molecular target: RIPK2 (Homo sapiens, UniProt O43353); assay: Kinase profiling RIPK2; conditions: for remaining activity at 100 µM: read-out: residual kinase activity, RIPK2
Description: as §1

[7] = molecular target: EF2K (Homo sapiens, UniProt O00418); assay: Kinase profiling EF2K; conditions: for remaining activity at 100 µM: read-out: residual kinase activity, EF2K
Description: as §1

[8] = molecular target: BTK (Homo sapiens, UniProt Q06187); assay: Kinase profiling BTK; conditions: for remaining activity at 100 µM: read-out: residual kinase activity, BTK
Description: as §1

[9] = molecular target: CHK2 (Homo sapiens, UniProt O96017); assay: Kinase profiling CHK2; conditions: for remaining activity at 100 µM: read-out: residual kinase activity, CHK2
Description: as §1

[10] = 100 micromolar inhibitor concentration, 100 is no change
[11] = 100 micromolar inhibitor, 100 = no change

Chain of RSK1 (Q15418 whole entry, species assumed): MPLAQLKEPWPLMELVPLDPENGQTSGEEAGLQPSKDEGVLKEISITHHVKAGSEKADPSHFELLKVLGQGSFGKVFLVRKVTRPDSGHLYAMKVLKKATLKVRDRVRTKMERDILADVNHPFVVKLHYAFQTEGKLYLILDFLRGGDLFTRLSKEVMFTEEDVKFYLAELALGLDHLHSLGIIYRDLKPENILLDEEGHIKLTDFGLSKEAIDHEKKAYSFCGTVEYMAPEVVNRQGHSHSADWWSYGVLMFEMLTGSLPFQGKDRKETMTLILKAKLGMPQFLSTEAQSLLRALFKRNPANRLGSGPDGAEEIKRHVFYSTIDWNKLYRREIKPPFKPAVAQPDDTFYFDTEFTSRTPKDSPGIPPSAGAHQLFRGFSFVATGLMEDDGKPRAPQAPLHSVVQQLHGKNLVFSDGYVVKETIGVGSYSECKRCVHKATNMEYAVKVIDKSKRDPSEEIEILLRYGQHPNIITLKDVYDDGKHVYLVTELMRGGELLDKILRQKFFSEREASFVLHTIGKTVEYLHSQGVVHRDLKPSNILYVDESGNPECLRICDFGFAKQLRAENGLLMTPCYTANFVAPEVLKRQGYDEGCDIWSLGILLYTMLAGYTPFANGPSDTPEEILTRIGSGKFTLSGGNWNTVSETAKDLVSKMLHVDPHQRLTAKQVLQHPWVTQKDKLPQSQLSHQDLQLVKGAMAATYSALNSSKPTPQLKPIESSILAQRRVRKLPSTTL
Chain of BTK (Q06187 whole entry, species assumed): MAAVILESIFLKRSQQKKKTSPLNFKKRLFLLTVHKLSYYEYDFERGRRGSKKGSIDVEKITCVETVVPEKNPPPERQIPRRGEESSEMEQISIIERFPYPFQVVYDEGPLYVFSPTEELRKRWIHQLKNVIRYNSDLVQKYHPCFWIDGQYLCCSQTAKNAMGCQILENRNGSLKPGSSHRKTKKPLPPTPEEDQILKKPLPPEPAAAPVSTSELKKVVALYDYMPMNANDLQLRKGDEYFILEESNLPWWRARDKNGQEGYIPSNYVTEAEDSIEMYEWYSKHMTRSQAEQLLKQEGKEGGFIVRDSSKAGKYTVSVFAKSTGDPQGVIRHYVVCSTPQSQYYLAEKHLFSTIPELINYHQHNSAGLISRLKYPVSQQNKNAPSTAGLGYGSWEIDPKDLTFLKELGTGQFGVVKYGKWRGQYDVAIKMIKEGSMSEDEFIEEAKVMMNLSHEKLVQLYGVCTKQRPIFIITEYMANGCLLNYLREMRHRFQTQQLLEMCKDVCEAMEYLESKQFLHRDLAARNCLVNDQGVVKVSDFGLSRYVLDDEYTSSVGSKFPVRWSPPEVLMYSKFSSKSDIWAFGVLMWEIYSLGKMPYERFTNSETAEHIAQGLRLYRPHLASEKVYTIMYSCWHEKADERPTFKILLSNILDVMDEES
Chain of CHK2 (O96017 whole entry, species assumed): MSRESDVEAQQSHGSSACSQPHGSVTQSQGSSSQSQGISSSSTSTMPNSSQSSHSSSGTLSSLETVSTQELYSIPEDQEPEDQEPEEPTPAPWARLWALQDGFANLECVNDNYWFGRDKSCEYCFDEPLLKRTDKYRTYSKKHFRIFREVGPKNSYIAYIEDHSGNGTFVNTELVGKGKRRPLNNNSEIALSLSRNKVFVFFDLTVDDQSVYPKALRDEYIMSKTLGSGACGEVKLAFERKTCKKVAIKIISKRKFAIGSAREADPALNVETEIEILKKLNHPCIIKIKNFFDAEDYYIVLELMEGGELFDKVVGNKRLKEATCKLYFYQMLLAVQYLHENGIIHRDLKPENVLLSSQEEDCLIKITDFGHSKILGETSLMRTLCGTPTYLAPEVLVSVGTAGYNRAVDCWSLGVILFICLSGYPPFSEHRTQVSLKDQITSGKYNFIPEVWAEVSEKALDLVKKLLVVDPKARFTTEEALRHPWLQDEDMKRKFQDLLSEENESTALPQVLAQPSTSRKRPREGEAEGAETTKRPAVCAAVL
Chain of RIPK2 (O43353 whole entry, species assumed): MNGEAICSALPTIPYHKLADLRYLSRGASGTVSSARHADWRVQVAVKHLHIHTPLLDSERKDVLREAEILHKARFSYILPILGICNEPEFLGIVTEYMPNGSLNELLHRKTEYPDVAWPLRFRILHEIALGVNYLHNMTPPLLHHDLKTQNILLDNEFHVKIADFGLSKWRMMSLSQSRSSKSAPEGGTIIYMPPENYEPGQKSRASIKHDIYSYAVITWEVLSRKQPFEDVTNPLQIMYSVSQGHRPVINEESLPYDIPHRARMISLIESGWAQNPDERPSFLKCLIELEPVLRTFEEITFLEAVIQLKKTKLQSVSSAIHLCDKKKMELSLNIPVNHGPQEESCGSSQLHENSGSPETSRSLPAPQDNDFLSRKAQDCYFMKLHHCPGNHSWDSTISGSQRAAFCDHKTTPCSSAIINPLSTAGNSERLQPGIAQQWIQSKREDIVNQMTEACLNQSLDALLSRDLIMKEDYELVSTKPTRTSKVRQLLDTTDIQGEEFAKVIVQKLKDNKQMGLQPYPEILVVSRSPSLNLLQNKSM
Chain of EPH-A2 (P29317 24-976, species assumed): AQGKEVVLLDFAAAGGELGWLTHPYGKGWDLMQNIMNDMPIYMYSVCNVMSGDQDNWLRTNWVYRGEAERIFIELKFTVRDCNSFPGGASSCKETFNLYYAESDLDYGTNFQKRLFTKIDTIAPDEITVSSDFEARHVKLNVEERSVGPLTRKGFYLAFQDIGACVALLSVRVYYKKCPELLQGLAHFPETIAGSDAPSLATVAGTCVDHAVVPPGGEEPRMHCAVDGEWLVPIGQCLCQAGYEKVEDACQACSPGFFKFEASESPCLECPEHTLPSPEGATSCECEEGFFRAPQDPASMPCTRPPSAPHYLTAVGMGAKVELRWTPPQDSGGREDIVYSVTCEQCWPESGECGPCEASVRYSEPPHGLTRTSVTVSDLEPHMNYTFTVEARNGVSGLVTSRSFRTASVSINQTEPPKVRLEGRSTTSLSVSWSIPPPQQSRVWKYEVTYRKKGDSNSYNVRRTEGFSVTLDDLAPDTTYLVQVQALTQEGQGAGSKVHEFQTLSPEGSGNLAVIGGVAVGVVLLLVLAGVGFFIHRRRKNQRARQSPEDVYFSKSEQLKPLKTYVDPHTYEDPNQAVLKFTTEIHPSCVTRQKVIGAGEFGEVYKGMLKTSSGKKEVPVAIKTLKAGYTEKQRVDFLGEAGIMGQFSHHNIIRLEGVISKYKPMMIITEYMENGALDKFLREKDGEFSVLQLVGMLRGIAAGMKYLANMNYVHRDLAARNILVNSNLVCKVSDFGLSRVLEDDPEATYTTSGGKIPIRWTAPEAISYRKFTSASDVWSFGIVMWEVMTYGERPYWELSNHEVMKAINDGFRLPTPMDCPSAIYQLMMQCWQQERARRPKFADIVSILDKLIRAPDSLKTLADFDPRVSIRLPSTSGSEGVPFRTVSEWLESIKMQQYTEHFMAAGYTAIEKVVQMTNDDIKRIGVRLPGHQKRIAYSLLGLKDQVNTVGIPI

## O=C(Nc1nc2ccc(F)cc2s1)c1ccccc1 [Compound 03-92]
[1]; [10]
  residual kinase activity, EPH-A2: 98
[2]; [10]
  residual kinase activity, RSK1: 79
[3]; [10]
  residual kinase activity, CK2: 90
[4]; [10]
  residual kinase activity, PKD1: 111
[5]; [10]
  residual kinase activity, LKB1: 100
[6]; [10]
  residual kinase activity, RIPK2: 69
[7]; [10]
  residual kinase activity, EF2K: 134
[8]; [10]
  residual kinase activity, BTK: 73
[9]; [10]
  residual kinase activity, CHK2: 80

## CC(=O)Nc1nc2ccc(F)cc2s1 [Compound 03-94]
[1]; [10]
  residual kinase activity, EPH-A2: 94
[2]; [10]
  residual kinase activity, RSK1: 85
[3]; [10]
  residual kinase activity, CK2: 91
[4]; [10]
  residual kinase activity, PKD1: 105
[5]; [10]
  residual kinase activity, LKB1: 46
[6]; [10]
  residual kinase activity, RIPK2: 38
[7]; [10]
  residual kinase activity, EF2K: 96
[8]; [10]
  residual kinase activity, BTK: 107
[9]; [10]
  residual kinase activity, CHK2: 74

## COc1ccc2sc(NC(=O)c3ccccc3)nc2c1 [Compound 03-95]
[1]; [10]
  residual kinase activity, EPH-A2: 91
[2]; [10]
  residual kinase activity, RSK1: 64
[3]; [10]
  residual kinase activity, CK2: 78
[4]; [10]
  residual kinase activity, PKD1: 92
[5]; [10]
  residual kinase activity, LKB1: 72
[6]; [10]
  residual kinase activity, RIPK2: 40
[7]; [10]
  residual kinase activity, EF2K: 115
[8]; [10]
  residual kinase activity, BTK: 75
[9]; [10]
  residual kinase activity, CHK2: 98

## COc1ccc2nc(NC(=O)c3ccccc3)sc2c1 [Compound 03-98]
[1]; [10]
  residual kinase activity, EPH-A2: 95
[2]; [10]
  residual kinase activity, RSK1: 74
[3]; [10]
  residual kinase activity, CK2: 88
[4]; [10]
  residual kinase activity, PKD1: 104
[5]; [10]
  residual kinase activity, LKB1: 118
[6]; [10]
  residual kinase activity, RIPK2: 34
[7]; [10]
  residual kinase activity, EF2K: 108
[8]; [10]
  residual kinase activity, BTK: 56
[9]; [10]
  residual kinase activity, CHK2: 37

## O=C(Nc1nc2ccc(C(F)(F)F)cc2s1)c1ccccc1 [Compound 03-99]
[1]; [10]
  residual kinase activity, EPH-A2: 110
[2]; [10]
  residual kinase activity, RSK1: 92
[3]; [10]
  residual kinase activity, CK2: 80
[4]; [10]
  residual kinase activity, PKD1: 114
[5]; [10]
  residual kinase activity, LKB1: 103
[6]; [10]
  residual kinase activity, RIPK2: 89
[7]; [10]
  residual kinase activity, EF2K: 99
[8]; [10]
  residual kinase activity, BTK: 79
[9]; [10]
  residual kinase activity, CHK2: 94

## O=C(Nc1nc2cc(O)ccc2s1)c1ccccc1 [Compound 03-102]
[1]; [10]
  residual kinase activity, EPH-A2: 65
[2]; [10]
  residual kinase activity, RSK1: 41
[3]; [10]
  residual kinase activity, CK2: 75
[4]; [10]
  residual kinase activity, PKD1: 60
[5]; [10]
  residual kinase activity, LKB1: 33
[6]; [10]
  residual kinase activity, RIPK2: 24
[7]; [10]
  residual kinase activity, EF2K: 92
[8]; [10]
  residual kinase activity, BTK: 81
[9]; [10]
  residual kinase activity, CHK2: 26

## COC(=O)c1cccc(C(=O)Nc2nc3ccc(C(F)(F)F)cc3s2)c1 [Compound 03-105, Methyl 3-((6-(trifluoromethyl)benzo[d]thiazol-2-yl)carbamoyl)benzoate]
[1]
  remaining activity at 100 µM: 100%
[2]
  remaining activity at 100 µM: 87%
[3]; [10]
  residual kinase activity, CK2: 89
[4]
  remaining activity at 100 µM: 90%
[5]
  remaining activity at 100 µM: 91%
[6]
  remaining activity at 100 µM: 79%
[7]
  remaining activity at 100 µM: 108%
[8]
  remaining activity at 100 µM: 95%
[9]
  remaining activity at 100 µM: 89%

## N#Cc1ccc2nc(NC(=O)c3ccccc3)sc2c1 [Compound 03-106]
[1]; [10]
  residual kinase activity, EPH-A2: 89
[2]; [10]
  residual kinase activity, RSK1: 96
[3]; [10]
  residual kinase activity, CK2: 12
[4]; [10]
  residual kinase activity, PKD1: 86
[5]; [10]
  residual kinase activity, LKB1: 107
[6]; [10]
  residual kinase activity, RIPK2: 78
[7]; [10]
  residual kinase activity, EF2K: 100
[8]; [10]
  residual kinase activity, BTK: 49
[9]; [10]
  residual kinase activity, CHK2: 62

## COC(=O)c1cccc(C(=O)Nc2nc3cc(OC)ccc3s2)c1 [Compound 03-108]
[1]; [10]
  residual kinase activity, EPH-A2: 76
[2]; [10]
  residual kinase activity, RSK1: 70
[3]; [10]
  residual kinase activity, CK2: 97
[4]; [10]
  residual kinase activity, PKD1: 102
[5]; [10]
  residual kinase activity, LKB1: 90
[6]; [10]
  residual kinase activity, RIPK2: 39
[7]; [10]
  residual kinase activity, EF2K: 91
[8]; [10]
  residual kinase activity, BTK: 68
[9]; [10]
  residual kinase activity, CHK2: 65

## COC(=O)c1cccc(C(=O)Nc2nc3ccc(F)cc3s2)c1 [Compound 03-110]
[1]; [10]
  residual kinase activity, EPH-A2: 84
[2]; [10]
  residual kinase activity, RSK1: 70
[3]; [10]
  residual kinase activity, CK2: 86
[4]; [10]
  residual kinase activity, PKD1: 88
[5]; [10]
  residual kinase activity, LKB1: 92
[6]; [10]
  residual kinase activity, RIPK2: 48
[7]; [10]
  residual kinase activity, EF2K: 94
[8]; [10]
  residual kinase activity, BTK: 77
[9]; [10]
  residual kinase activity, CHK2: 51

## COc1ccc2sc(NC(=O)c3cccc(C(N)=O)c3)nc2c1 [Compound 03-113]
[1]; [10]
  residual kinase activity, EPH-A2: 96
[2]; [10]
  residual kinase activity, RSK1: 87
[3]; [10]
  residual kinase activity, CK2: 46
[4]; [10]
  residual kinase activity, PKD1: 110
[5]; [10]
  residual kinase activity, LKB1: 95
[6]; [10]
  residual kinase activity, RIPK2: 99
[7]; [10]
  residual kinase activity, EF2K: 127
[8]; [10]
  residual kinase activity, BTK: 74
[9]; [10]
  residual kinase activity, CHK2: 98

## COc1ccc2nc(C(=O)Nc3ccccc3)sc2c1 [Compound 13-03]
[1]; [11]
  residual kinase activity, EPH-A2: 63
[2]; [11]
  residual kinase activity, RSK1: 77
[3]; [11]
  residual kinase activity, CK2: 97
[4]; [11]
  residual kinase activity, PKD1: 113
[5]; [11]
  residual kinase activity, LKB1: 110
[6]; [11]
  residual kinase activity, RIPK2: 76
[7]; [11]
  residual kinase activity, EF2K: 110
[8]; [11]
  residual kinase activity, BTK: 31
[9]; [11]
  residual kinase activity, CHK2: 92

## CC(=O)Nc1nc2ccc([N+](=O)[O-])cc2s1 [Compound 13-10]
[1]; [10]
  remaining activity at 100 µM: 65%
[2]; [10]
  remaining activity at 100 µM: 89%
[3]; [10]
  residual kinase activity, CK2: 51
[4]; [10]
  remaining activity at 100 µM: 82%
[5]; [10]
  remaining activity at 100 µM: 73%
[6]; [10]
  remaining activity at 100 µM: 27%
[7]; [10]
  remaining activity at 100 µM: 95%
[8]; [10]
  remaining activity at 100 µM: 96%
[9]; [10]
  remaining activity at 100 µM: 59%
